Measurements taken from PMC11331127 (Proceedings of the National Academy of Sciences of the …, 2024).

Columns and labels:
Format in all cases: cell-based
Cx26 [1] = target: T1, Cx26 (Homo sapiens, UniProt P29033); test: dye uptake rate in Xenopus oocytes; settings: transport (dye permeation); resting membrane potential
Cx30 = Cx30 (Homo sapiens, UniProt O95452); test: dye uptake rate in Xenopus oocytes; settings: transport (dye permeation); resting membrane potential
Cx26 [2] = target: Cx26 (Homo sapiens, UniProt P29033, INS2A); test: dye uptake rate in Xenopus oocytes; settings: transport (dye permeation); resting membrane potential
Cx26 [3] = target: T1, Cx26; test: inhibition of DAPI uptake in Xenopus oocytes; settings: competitive versus DAPI; resting membrane potential

Sequence of Cx30 (O95452 whole entry): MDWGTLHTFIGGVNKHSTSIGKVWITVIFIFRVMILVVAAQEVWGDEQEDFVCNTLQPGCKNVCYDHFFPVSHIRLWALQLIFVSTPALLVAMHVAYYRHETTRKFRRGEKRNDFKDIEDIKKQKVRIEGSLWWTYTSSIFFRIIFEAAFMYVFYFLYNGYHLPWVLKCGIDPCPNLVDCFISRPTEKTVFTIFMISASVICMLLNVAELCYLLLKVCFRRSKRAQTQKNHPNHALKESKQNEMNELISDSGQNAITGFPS

Row | Km (Cx26 [1]) | Km (Cx30) | Km (Cx26 [2]) | Ki (Cx26 [3]) | Substance
1 | 90.1 ± 22 µM |  |  |  | DAPI
2 |  | 6.6 ± 2 µM | 88.6 ± 17.4 µM | ~16.5 µM | ethidium
